Where a SMILES comes first, the peptide text is derived from it. [ ]: non-standard residue; d: D form. pGlu = O=C1CC[C@@H](C(=O)O)N1
Legend:
[1] = In vitro antioxidant activity (DPPH test); type: biochemical
Excerpt: The antioxidant (radical-scavenger) activity was studied by means of the DPPH in vitro test and with the paracetamol in vivo test.

[2] = tested on: elimination of phenol red from the respiratory fluid; assay: Mucosecretolytic activity (phenol red test in the mouse); type: in vivo; conditions: 100 mg/kg os; for Mean secretion (total μg) (mean ± S.E.): controls 2.73 ± 0.18, **p <0.01 Dunnett's "t" test
[3] = tested on: paracetamol acute toxicity; assay: In vivo antioxidant activity (paracetamol test); set-up: species or system Male Crl: CD-1 (ICR) BR mice; conditions: 100 mg/kg os 30 minutes before and 5 hours after paracetamol 1000 mg/kg i.p., 6 days; for Mortality (%): controls 90%
Procedure: The in vivo antioxidant (radical scavenger) activity was evidenced by means of the protection test against paracetamol acute toxicity. Male Crl: CD-1 (ICR) BR mice, weighing 25-30 g, were treated intraperitoneally with 1000 mg/kg (1 ml/kg) of paracetamol dissolved in 20% DMF in water immediately before the administration.
In vivo antioxidant activity (paracetamol test)

[4] = known from EP-A-332,946; in words; cited from earlier work

Compound	Variat. (%) of absorbancies ([1]; 5.10^-5 M, 50 µM) [%]	Variat. (%) of absorbancies ([1]; 10^-4 M, 100 µM) [%]	Variat. (%) of absorbancies ([1]; 10^-5 M, 10 µM) [%]	Variat. (%) of mean secretion vs controls [2]	Mean secretion (total μg) (mean ± S.E.) [2] [µg]	Mortality, Variat. vs controls (%) [3] [%]	Mortality (%) [3] [%]	anticataractogenic activity [4]
COC(=O)[C@H](CS)NC(=O)[C@@H]1CCC(=O)N1 [Ic, N-(5-oxo-L-prolyl)-L-cysteine methyl ester] ([pGlu]-Cys-OMe)	-49.1	-82.7	-10.4	+143.2%	6.64 ± 1.00	45.4	50	
COC(=O)[C@H](CS)NC(=O)[C@@H]1CCC(=S)N1 [Id, N-(5-thioxo-L-prolyl)-L-cysteine methyl ester]	-51.8	-79.1	-14.3	+97.4%	5.39 ± 0.59	45.4	50	
O=C(O)[C@H](CS)NC(=O)[C@@H]1CCC(=S)N1 [Ie, N-(5-thioxo-L-prolyl)-L-cysteine]	-51.8	-83.1	-14.3	+112.8%	5.81 ± 0.62	66.7	30	
O=C1O[C@H]([C@@H](O)CO)C(O)=C1O [L-ascorbic acid]	-49.5	-86.0	-17.6					
N[C@@H](CS)C(=O)O [L-cysteine]	-56.5	-83.7	-10.9					
O=C1CC[C@@H](C(=O)N[C@@H](CS)C(=O)O)N1 [N-(5-oxo-L-prolyl)-L-cysteine] ([pGlu]-Cys-OH)	-49.6	-88.1	-29.6	+92.7%	5.26 ± 0.25	66.7	30	known to have anticataractogenic activity
CC(=O)N[C@@H](CS)C(=O)O [N-acetyl-L-cysteine]	-47.9	-86.3	-10.4	+61.9%	4.42 ± 0.83	45.4	50	

Reference: patent publication US5254579A, “N-(5-thioxo-L-prolyl)-L-cysteine, derivatives thereof, processes for the preparation thereof and pharmaceutical compositions containing them” (Poli Industria Chimica S.p.A., priority 1991, dated 1993)
